# Data: patent US20200040348A1, “CONTROL OF VIRAL AND BACTERIAL INFECTION BY ANTIMICROBIAL PEPTIDES RETROCYCLIN AND/OR PROTEGRIN EXPRESSED IN CHLOROPLASTS” (THE TRUSTEES OF THE UNIVERSITY OF PENNSYLVANIA, priority 2010, published 2020)
# Entries after “also recorded” stand apart in the source; their conditions may differ. Where no end group is shown, it is not given here.
# Tests used:
# [1] = test system: T-tropic and M-tropic strains of HIV-1; conditions: human CD4+ lymphocytes, in vitro; cited from earlier work
# [2] = test system: vegetative B. anthracis cells; conditions: cited from earlier work
# Erwinia carotovora [3] = test: In planta assay for resistance to Erwinia soft rot (syringe or sandpaper inoculation of tobacco leaves); type: in vivo; conditions: mature transplastomic tobacco leaves; for necrosis at the site of inoculation: sand paper method, up to 10^8 E. carotovora cells; for necrosis surrounding the point of inoculation: syringe method, 10^8, 10^6, 10^4 and 10^2 E. carotovora cells, peptide expressed in chloroplasts
# Erwinia carotovora [4] = test: Erwinia carotovora inoculation and bacterial count in tobacco leaves; type: in vivo; conditions: plants inoculated with 1.0×10^5 cfu/ml E. carotovora
# Procedure: The leaves of untransformed and transplastomic tobacco plants were inoculated with 20 μl of bacterial suspension (1.0×10^5 cfu/ml) through a syringe. Each leaf disc (0.8 cm diameter) was punched off from the inoculated area of an individual plant after 0, 1 or 3 days of incubation. The bacterial population inside the leaf was calculated as follows. Leaf tissue was ground in 100 μl sterilized water in a microcentrifuge tube. The suspension was serially diluted with sterilized water and was then plated on nutrient broth agar plates (Difco). Colonies were counted after one day of incubation at 25° C.
# [5] = test system: tobacco mosaic virus (TMV); type: in vivo; conditions: transplastomic tobacco plants, within 20 days after inoculation
# [6] = test system: gram-positive or gram-negative bacteria; conditions: cited from earlier work
# HIV-1 = conditions: organ-like construct of human cervicovaginal tissue; cited from earlier work
Substance,concentration that inhibits proviral DNA formation and protects from infection [1] [µg/mL],minimum effective concentration [2] [µg/mL],necrosis at the site of inoculation (Erwinia carotovora [3]),necrosis surrounding the point of inoculation (Erwinia carotovora [3]),symptoms of necrosis (Erwinia carotovora [4]),symptoms of TMV infection [5],minimum inhibitory concentrations [6] [µg/mL],amount that prevents HIV-1 infection (HIV-1) [µg]
Retrocyclin,10 to 20,–,–,–,–,–,–,–
Retrocyclin-1,–,< 1,–,–,–,–,–,–
"Protegrin-1 (RGGRLCYCRRRFCVCVGR; not fully specified (bridges); ends and bridges not checked; also: two disulfide bonds, pairing not given here) [PG1]",–,–,mild discoloration,no areas of necrosis,no apparent symptoms of necrosis,"typical mosaic, necrosis and wrinkle symptoms; also recorded: not effective",0.12 to 2,–
Retrocyclin-101 [RC101],–,–,no necrosis,no areas of necrosis,no apparent symptoms of necrosis,didn't show obvious symptoms of TMV infection; also recorded: resistant to TMV infection,–,2
